Source: ChEMBL document CHEMBL3885861, “Open TG-GATES”

Species on record: Rattus norvegicus
Experiment: Open TG-GATES - Regimen: Daily Repeat
Assay type: toxicity, organism-based, Sprague-Dawley
Set-up: regimen Daily Repeat, gender Male, age 6 weeks
Conditions: in vivo, po, 0 mg/kg, route gavage, dose level Control; for APTT / Bas / Eos / Fbg / Hb / Ht / Lym / MCH / MCHC / MCV / Mono / Neu / PT / Plat / RBC / Ret / WBC: tissue Blood; for KIDNEY_L / KIDNEY_R / KIDNEY_TOTAL: tissue Kidney; for LIVER: tissue Liver; for ALP / ALT / AST / BUN / CRE / Ca / DBIL / GLC / IP / K / LDH / Na / PL / RALB / TBIL / TC / TG / TP / gamma-GTP: tissue Plasma

Oc1ncnc2[nH]ncc12 [ALLOPURINOL]
TERMINAL_BW (72 h, time 3 day): 244.3 g | APTT (72 h, time 3 day): 16.6 s | Bas (72 h, time 3 day): 0% | Eos (72 h, time 3 day): 0.8% | Fbg (72 h, time 3 day): 237 mg/dL | Hb (72 h, time 3 day): 13.9 g/dL | Ht (72 h, time 3 day): 41.5% | Lym (72 h, time 3 day): 74.6% | MCH (72 h, time 3 day): 22.3 pg | MCHC (72 h, time 3 day): 33.3% | MCV (72 h, time 3 day): 66.7 fL | Mono (72 h, time 3 day): 11.6% | Neu (72 h, time 3 day): 12.8% | PT (72 h, time 3 day): 11.9 s | Plat (72 h, time 3 day): 93.5 x10_4/uL | RBC (72 h, time 3 day): 623.2 x10_4/ul | Ret (72 h, time 3 day): 7.7% | WBC (72 h, time 3 day): 127.2 x10_2/uL | KIDNEY_L (72 h, time 3 day): 1 g | KIDNEY_R (72 h, time 3 day): 1 g | KIDNEY_TOTAL (72 h, time 3 day): 2.1 g | LIVER (72 h, time 3 day): 12.2 g | ALP (72 h, time 3 day): 863.2 IU/L | ALT (72 h, time 3 day): 34.2 IU/L | AST (72 h, time 3 day): 58.2 IU/L | BUN (72 h, time 3 day): 18.2 mg/dL | CRE (72 h, time 3 day): 0.5 mg/dL | Ca (72 h, time 3 day): 11.4 mg/dL | DBIL (72 h, time 3 day): 0 mg/dL | GLC (72 h, time 3 day): 201.6 mg/dL | IP (72 h, time 3 day): 8.1 mg/dL | K (72 h, time 3 day): 4.9 meq/L | LDH (72 h, time 3 day): 84.6 IU/L | Na (72 h, time 3 day): 137.8 meq/L | PL (72 h, time 3 day): 174.6 mg/dL | RALB (72 h, time 3 day): 3.9 g/dL | TBIL (72 h, time 3 day): 0.2 mg/dL | TC (72 h, time 3 day): 87.8 mg/dL | TG (72 h, time 3 day): 130 mg/dL | TP (72 h, time 3 day): 6 g/dL | gamma-GTP (72 h, time 3 day): 1.2 IU/L | TERMINAL_BW ([…], time 7 day): 249.8 g | TERMINAL_BW ([…], time 14 day): 318.9 g | TERMINAL_BW ([…], time 28 day): 401.4 g | APTT ([…], time 7 day): 17.2 s | Bas ([…], time 7 day): 0% | Eos ([…], time 7 day): 1% | Fbg ([…], time 7 day): 242.2 mg/dL | Hb ([…], time 7 day): 15 g/dL | Ht ([…], time 7 day): 45.2% | Lym ([…], time 7 day): 77.8% | MCH ([…], time 7 day): 20.4 pg | MCHC ([…], time 7 day): 33.2% | MCV ([…], time 7 day): 61.4 fL | Mono ([…], time 7 day): 4.8% | Neu ([…], time 7 day): 16.8% | PT ([…], time 7 day): 12 s | Plat ([…], time 7 day): 118.1 x10_4/uL | RBC ([…], time 7 day): 737.4 x10_4/ul | Ret ([…], time 7 day): 4.5% | APTT ([…], time 14 day): 16.9 s | Bas ([…], time 14 day): 0% | Eos ([…], time 14 day): 1% | Fbg ([…], time 14 day): 227 mg/dL | Hb ([…], time 14 day): 14.5 g/dL | Ht ([…], time 14 day): 44% | Lym ([…], time 14 day): 76.4% | MCH ([…], time 14 day): 19.9 pg | MCHC ([…], time 14 day): 33% | MCV ([…], time 14 day): 60.5 fL | Mono ([…], time 14 day): 6% | Neu ([…], time 14 day): 16.8% | PT ([…], time 14 day): 11.9 s | Plat ([…], time 14 day): 97.7 x10_4/uL | RBC ([…], time 14 day): 728 x10_4/ul | Ret ([…], time 14 day): 3.7% | APTT ([…], time 28 day): 16.3 s | Bas ([…], time 28 day): 0% | Eos ([…], time 28 day): 1% | Fbg ([…], time 28 day): 230.6 mg/dL | Hb ([…], time 28 day): 14.8 g/dL | Ht ([…], time 28 day): 44.2% | Lym ([…], time 28 day): 80.8% | MCH ([…], time 28 day): 19.3 pg | MCHC ([…], time 28 day): 33.5% | MCV ([…], time 28 day): 57.6 fL | Mono ([…], time 28 day): 6.2% | Neu ([…], time 28 day): 11.8% | PT ([…], time 28 day): 12.3 s | Plat ([…], time 28 day): 109.3 x10_4/uL | RBC ([…], time 28 day): 766.8 x10_4/ul | Ret ([…], time 28 day): 3.5% | WBC ([…], time 28 day): 163 x10_2/uL | KIDNEY_L ([…], time 7 day): 1.1 g | KIDNEY_R ([…], time 7 day): 1.1 g | KIDNEY_TOTAL ([…], time 7 day): 2.1 g | KIDNEY_L ([…], time 14 day): 1.2 g | KIDNEY_R ([…], time 14 day): 1.2 g | KIDNEY_TOTAL ([…], time 14 day): 2.5 g | KIDNEY_L ([…], time 28 day): 1.4 g | KIDNEY_R ([…], time 28 day): 1.4 g | KIDNEY_TOTAL ([…], time 28 day): 2.8 g | LIVER ([…], time 14 day): 14.3 g | LIVER ([…], time 28 day): 16.2 g | ALP ([…], time 7 day): 874.8 IU/L | ALT ([…], time 7 day): 26 IU/L | AST ([…], time 7 day): 56.2 IU/L | BUN ([…], time 7 day): 22.4 mg/dL | CRE ([…], time 7 day): 0.5 mg/dL | DBIL ([…], time 7 day): 0.06 mg/dL | GLC ([…], time 7 day): 203 mg/dL | IP ([…], time 7 day): 7.7 mg/dL | K ([…], time 7 day): 4.6 meq/L | LDH ([…], time 7 day): 86.2 IU/L | Na ([…], time 7 day): 136.6 meq/L | PL ([…], time 7 day): 135.4 mg/dL | RALB ([…], time 7 day): 4 g/dL | TBIL ([…], time 7 day): 0.3 mg/dL | TC ([…], time 7 day): 68.2 mg/dL | TG ([…], time 7 day): 60.4 mg/dL | TP ([…], time 7 day): 6.2 g/dL | gamma-GTP ([…], time 7 day): 1.2 IU/L | ALP ([…], time 14 day): 710.4 IU/L | ALT ([…], time 14 day): 32 IU/L | AST ([…], time 14 day): 62.8 IU/L | BUN ([…], time 14 day): 17.8 mg/dL | CRE ([…], time 14 day): 0.6 mg/dL | Ca ([…], time 14 day): 10.9 mg/dL | DBIL ([…], time 14 day): 0.01 mg/dL | GLC ([…], time 14 day): 206.4 mg/dL | IP ([…], time 14 day): 7.9 mg/dL | K ([…], time 14 day): 4.3 meq/L | LDH ([…], time 14 day): 69.8 IU/L | Na ([…], time 14 day): 139.8 meq/L | PL ([…], time 14 day): 150 mg/dL | RALB ([…], time 14 day): 3.6 g/dL | TBIL ([…], time 14 day): 0.3 mg/dL | TC ([…], time 14 day): 70 mg/dL | TG ([…], time 14 day): 118 mg/dL | TP ([…], time 14 day): 6 g/dL | gamma-GTP ([…], time 14 day): 1.6 IU/L | ALP ([…], time 28 day): 602.4 IU/L | ALT ([…], time 28 day): 31.6 IU/L | AST ([…], time 28 day): 61.8 IU/L | BUN ([…], time 28 day): 20 mg/dL | CRE ([…], time 28 day): 0.4 mg/dL | DBIL ([…], time 28 day): 0.018 mg/dL | GLC ([…], time 28 day): 186 mg/dL | IP ([…], time 28 day): 6.5 mg/dL | K ([…], time 28 day): 4.7 meq/L | LDH ([…], time 28 day): 81 IU/L | Na ([…], time 28 day): 138.8 meq/L | PL ([…], time 28 day): 146.2 mg/dL | RALB ([…], time 28 day): 3.8 g/dL | TBIL ([…], time 28 day): 0.3 mg/dL | TC ([…], time 28 day): 67.2 mg/dL | TG ([…], time 28 day): 147.4 mg/dL | TP ([…], time 28 day): 6.2 g/dL | gamma-GTP ([…], time 28 day): 1.4 IU/L
